Test results taken from ChEMBL document CHEMBL1201862, “PubChem BioAssay data set” (2004).
Active and inactive are the calls of the source.

How the values were obtained:
[1] = molecular target: Troponin, cardiac muscle (Homo sapiens, UniProt P19429+P45379+P63316); test: Fluorescence-based biochemical high throughput dose response assay for activators of the calcium sensitivity of cardiac Regulated Thin Filaments (RTF). [Related pubchem assays (depositor defined):AID493008, AID493018, AID504382, AID504383]; assay type: protein-complex assay
[2] = molecular target: T1, Zinc finger protein mex-5 (Caenorhabditis elegans, UniProt Q9XUB2); test: MEX-5/TCR-2 RNA interaction inhibitors, dose response, biochemical, C. elegans, fluorescence polarization (AID 1960)
T1 sequence (Q9XUB2 whole entry): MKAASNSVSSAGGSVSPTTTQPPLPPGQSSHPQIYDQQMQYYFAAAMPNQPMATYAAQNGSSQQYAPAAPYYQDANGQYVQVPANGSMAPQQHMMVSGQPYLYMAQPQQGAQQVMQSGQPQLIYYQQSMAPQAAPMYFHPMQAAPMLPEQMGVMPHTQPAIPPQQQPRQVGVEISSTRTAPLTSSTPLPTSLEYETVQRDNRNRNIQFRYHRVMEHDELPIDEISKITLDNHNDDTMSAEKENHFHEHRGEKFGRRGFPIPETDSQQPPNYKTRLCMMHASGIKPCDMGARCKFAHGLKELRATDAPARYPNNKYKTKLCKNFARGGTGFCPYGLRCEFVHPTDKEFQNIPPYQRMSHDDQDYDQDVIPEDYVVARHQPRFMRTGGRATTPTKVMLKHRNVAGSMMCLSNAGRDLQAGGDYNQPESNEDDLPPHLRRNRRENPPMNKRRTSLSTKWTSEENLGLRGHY

[3] = molecular target: Protein Rev (Human immunodeficiency virus type 1 group M subtype B (isolate HXB2)(HIV-1), UniProt P04618); test: inhibitors of Rev binding to RRE RNA, dose response, biochemical, fluorescence polarization, HIV-1 (AID 434976); set-up: species or system Human immunodeficiency virus 1
Chain of Protein Rev (P04618 whole entry): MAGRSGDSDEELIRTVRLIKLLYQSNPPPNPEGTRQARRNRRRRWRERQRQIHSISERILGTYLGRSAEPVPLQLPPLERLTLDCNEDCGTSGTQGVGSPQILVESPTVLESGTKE

[4] = molecular target: T2, Polyadenylate-binding protein 1 (Homo sapiens, UniProt P11940); test: PABP1 MLLE–PAM2 interaction inhibitors, dose response, miRNA deadenylation inhibitor project, biochemical, fluorescence polarization, Cy5-PAM2 peptide, secondary (AID 602260); assay type: functional; settings: read-out: IC50_Mean
T2 sequence (P11940 whole entry): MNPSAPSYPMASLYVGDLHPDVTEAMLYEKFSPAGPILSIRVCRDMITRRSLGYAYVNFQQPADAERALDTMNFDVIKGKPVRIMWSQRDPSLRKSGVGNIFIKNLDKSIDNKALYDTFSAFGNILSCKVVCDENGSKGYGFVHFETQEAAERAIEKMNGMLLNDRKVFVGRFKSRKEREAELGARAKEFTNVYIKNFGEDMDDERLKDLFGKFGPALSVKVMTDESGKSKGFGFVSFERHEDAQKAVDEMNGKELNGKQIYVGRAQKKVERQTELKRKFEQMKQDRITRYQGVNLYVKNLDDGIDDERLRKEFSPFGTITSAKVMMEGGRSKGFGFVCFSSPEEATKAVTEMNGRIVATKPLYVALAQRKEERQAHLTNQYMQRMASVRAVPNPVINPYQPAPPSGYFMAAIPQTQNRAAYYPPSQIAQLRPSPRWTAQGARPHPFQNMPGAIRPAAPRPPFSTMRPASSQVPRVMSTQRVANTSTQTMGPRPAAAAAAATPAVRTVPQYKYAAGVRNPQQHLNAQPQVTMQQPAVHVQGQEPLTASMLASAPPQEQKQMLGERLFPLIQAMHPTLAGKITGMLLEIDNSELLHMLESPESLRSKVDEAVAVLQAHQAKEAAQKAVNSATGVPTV

[5] = molecular target: Female germline-specific tumor suppressor gld-1 (Caenorhabditis elegans, UniProt Q17339); test: inhibitors of GLD-1 binding to TGE RNA, dose response, biochemical, fluorescence polarization, C. elegans (AID 2802);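 note: fluorescence polarization of labeled TGE RNA bound by purified gld-1 protein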
Chain of Female germline-specific tumor suppressor gld-1 (Q17339 whole entry): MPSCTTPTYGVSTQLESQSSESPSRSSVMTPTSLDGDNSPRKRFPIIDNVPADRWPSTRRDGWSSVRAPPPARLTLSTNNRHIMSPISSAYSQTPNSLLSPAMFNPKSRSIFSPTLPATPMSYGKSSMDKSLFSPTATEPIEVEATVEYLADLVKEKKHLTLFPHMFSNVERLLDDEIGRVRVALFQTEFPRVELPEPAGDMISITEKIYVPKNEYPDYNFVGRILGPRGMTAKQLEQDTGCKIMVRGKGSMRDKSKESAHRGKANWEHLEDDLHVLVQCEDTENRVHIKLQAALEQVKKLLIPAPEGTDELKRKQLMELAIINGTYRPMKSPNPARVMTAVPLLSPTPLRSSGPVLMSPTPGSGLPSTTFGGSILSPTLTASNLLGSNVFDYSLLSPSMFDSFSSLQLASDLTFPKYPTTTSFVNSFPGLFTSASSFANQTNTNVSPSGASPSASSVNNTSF

[6] = molecular target: T2, Polyadenylate-binding protein 1; test: PABP1 MLLE–PAM2 binding inhibitor potency, dose response, biochemical, fluorescence polarization, FITC-PAM2 peptide (AID 602259); assay type: functional; settings: read-out: IC50_Mean
[7] = molecular target: T3, Protein skinhead-1 (Caenorhabditis elegans, UniProt P34707); assay type: functional
T3 sequence (P34707 whole entry): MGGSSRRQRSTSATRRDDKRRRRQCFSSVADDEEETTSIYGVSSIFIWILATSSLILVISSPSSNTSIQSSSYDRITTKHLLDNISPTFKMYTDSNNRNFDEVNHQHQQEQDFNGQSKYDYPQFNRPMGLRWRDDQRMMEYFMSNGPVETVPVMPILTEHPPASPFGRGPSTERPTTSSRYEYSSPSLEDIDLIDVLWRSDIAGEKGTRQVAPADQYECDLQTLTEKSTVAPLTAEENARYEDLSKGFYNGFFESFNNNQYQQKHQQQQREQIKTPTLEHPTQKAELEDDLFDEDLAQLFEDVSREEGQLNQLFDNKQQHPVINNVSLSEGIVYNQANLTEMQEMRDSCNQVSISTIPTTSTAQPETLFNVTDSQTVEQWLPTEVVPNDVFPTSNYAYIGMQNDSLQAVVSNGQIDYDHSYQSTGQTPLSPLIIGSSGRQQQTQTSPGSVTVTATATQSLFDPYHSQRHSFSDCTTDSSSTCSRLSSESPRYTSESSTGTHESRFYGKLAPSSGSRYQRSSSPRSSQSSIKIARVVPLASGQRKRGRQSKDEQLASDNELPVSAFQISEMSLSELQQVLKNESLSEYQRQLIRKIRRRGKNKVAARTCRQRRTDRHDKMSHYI

[8] = molecular target: T4, RNA-binding protein pos-1 (Caenorhabditis elegans, UniProt G5EF15); test: inhibitors of POS-1/mex-3 RNA binding, dose response, biochemical, fluorescence polarization (AID 1964);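 note: purified POS-1 fused to maltose binding protein made in E. coli; potency of compounds blocking POS-1 binding to fluorescent RNA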
T4 sequence (G5EF15 whole entry): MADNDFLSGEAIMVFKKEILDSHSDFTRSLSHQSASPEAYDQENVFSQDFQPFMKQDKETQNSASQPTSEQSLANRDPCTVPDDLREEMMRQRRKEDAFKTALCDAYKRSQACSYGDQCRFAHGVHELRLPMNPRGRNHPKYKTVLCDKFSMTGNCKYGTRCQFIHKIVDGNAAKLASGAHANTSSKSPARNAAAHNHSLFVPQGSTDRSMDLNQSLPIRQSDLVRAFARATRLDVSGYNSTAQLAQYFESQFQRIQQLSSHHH

[9] = molecular target: 14-3-3 protein gamma (Homo sapiens, UniProt P61981); test: modulators of 14-3-3 gamma client binding – dose response (AID 711); assay type: functional
Chain of 14-3-3 protein gamma (P61981 whole entry): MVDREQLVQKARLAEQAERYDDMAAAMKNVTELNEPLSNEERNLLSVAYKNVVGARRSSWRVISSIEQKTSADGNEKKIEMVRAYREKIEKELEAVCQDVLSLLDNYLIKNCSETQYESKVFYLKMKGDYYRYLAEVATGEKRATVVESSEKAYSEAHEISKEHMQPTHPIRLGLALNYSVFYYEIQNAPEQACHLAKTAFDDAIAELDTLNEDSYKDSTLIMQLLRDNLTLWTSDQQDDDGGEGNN

[10] = molecular target: C-C chemokine receptor type 6 (Homo sapiens, UniProt P51684); test: CCR6 receptor antagonists, dose response, cell-based, luminescent beta-arrestin readout (AID 504728); assay type: functional
Chain of C-C chemokine receptor type 6 (P51684 whole entry): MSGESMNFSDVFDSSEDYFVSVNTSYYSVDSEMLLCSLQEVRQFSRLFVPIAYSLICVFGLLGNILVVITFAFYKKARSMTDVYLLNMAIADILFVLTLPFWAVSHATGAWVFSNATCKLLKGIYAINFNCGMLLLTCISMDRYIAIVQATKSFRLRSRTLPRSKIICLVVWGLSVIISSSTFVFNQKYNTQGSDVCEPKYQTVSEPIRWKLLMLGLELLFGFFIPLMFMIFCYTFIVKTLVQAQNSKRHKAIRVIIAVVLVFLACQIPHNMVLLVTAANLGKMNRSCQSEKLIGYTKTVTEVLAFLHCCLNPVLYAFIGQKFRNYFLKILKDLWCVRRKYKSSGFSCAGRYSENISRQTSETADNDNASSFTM

[11] = molecular target: Beta-galactosidase (Escherichia coli, UniProt Q8VNN2); test: beta-galactosidase enzyme inhibitors and activators, dose response, artefact control for CCR6 antagonist project, biochemical, E. coli enzyme, set 3 (AID 504712); assay type: functional
Chain of Beta-galactosidase (Q8VNN2 whole entry): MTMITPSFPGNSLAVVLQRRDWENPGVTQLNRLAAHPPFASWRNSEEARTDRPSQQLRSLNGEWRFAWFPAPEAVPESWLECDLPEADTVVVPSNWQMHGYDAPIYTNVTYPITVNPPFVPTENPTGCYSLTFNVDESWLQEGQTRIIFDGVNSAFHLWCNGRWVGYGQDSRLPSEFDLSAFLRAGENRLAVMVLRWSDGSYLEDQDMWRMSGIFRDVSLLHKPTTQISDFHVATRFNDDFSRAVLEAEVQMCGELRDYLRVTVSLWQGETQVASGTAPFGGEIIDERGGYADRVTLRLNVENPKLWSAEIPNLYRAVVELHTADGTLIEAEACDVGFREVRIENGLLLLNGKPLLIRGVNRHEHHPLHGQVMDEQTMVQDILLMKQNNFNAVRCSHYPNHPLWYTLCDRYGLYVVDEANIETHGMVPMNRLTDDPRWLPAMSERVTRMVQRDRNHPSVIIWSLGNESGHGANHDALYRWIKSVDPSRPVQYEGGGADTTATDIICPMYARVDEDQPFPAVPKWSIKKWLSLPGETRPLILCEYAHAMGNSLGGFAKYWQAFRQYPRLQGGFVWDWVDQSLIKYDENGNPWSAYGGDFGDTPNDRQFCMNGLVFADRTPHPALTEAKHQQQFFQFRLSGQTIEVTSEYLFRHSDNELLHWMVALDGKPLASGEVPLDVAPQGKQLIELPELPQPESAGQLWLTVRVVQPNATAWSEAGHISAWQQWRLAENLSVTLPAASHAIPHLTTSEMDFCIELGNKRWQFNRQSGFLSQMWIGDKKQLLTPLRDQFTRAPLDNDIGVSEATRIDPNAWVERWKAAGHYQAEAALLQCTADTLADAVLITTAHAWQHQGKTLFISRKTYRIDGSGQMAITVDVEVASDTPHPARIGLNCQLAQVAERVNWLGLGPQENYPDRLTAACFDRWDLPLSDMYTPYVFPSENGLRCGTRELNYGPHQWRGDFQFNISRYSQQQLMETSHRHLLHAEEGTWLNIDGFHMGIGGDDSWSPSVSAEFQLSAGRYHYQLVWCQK

[12] = molecular target: T5, Hexokinase HKDC1 (Homo sapiens, UniProt Q2TB90); test: HKDC1 hexokinase inhibitors, dose response, biochemical, W721R variant (AID 504729); assay type: functional
T5 sequence (Q2TB90 whole entry): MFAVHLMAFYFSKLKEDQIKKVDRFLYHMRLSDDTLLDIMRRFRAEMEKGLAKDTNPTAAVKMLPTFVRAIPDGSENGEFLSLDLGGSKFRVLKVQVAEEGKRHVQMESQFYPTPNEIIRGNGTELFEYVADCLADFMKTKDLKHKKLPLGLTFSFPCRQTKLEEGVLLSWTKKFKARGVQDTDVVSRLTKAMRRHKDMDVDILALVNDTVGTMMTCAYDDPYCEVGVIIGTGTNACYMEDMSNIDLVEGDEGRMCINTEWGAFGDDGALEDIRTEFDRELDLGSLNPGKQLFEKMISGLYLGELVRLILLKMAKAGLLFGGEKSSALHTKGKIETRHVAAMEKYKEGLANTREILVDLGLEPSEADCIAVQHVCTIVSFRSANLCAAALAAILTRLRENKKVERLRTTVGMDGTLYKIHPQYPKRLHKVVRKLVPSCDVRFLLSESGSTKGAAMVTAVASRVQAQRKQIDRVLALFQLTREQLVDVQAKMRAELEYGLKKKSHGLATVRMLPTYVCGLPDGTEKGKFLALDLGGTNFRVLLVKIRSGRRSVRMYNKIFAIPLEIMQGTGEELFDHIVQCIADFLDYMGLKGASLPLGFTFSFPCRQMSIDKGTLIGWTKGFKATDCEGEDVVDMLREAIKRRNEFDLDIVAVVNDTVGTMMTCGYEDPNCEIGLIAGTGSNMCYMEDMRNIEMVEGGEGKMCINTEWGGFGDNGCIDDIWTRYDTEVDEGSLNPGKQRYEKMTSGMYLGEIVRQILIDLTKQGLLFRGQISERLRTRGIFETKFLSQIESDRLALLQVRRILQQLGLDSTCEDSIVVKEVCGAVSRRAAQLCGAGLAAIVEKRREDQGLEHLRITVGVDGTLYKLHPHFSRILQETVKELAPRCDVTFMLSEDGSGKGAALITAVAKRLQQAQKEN

[13] = molecular target: T6, E3 ubiquitin-protein ligase XIAP (Homo sapiens, UniProt P98170); test: XIAP antagonists, biochemical, IAP family, fluorescence polarization (AID 1018); assay type: functional
T6 sequence (P98170 whole entry): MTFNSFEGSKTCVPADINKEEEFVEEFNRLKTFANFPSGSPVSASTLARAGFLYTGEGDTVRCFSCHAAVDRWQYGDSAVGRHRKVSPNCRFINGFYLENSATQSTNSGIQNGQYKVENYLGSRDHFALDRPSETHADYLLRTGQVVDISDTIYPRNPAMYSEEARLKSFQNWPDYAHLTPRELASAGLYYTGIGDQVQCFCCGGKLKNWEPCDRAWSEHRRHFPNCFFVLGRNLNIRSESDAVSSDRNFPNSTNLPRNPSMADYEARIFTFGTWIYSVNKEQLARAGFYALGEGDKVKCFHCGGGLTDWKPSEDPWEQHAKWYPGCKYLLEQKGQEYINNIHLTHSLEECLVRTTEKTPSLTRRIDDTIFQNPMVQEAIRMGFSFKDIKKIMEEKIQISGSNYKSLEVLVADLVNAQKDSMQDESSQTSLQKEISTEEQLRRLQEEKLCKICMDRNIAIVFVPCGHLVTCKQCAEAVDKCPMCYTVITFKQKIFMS

[14] = molecular target: T6, E3 ubiquitin-protein ligase XIAP; test: Counter Screen using XIAP-Bir3 for Chemical Antagonists of Bir1/2 domains of IAP-family anti-apoptotic proteins. [Related pubchem assays (depositor defined):AID1018, AID1449, AID1514, AID1638, AID1749, AID1750, AID488957, AID488963]
[15] = inhibitors of SNCA 5'UTR-driven reporter translation, confirmation, H4 neuroglioma cells, luminescence (AID 1988); assay type: functional, cell-based
[16] = Luminescence Cell-Based Dose Response HTS to Identify Inhibitors of 5'UTR Stem-Loop Driven Prion Protein mRNA Translation in H4 Neuroglioblastoma Cells. [Related pubchem assays: 1827 (Project Summary), 1813 (Primary HTS)]; assay type: functional
[17] = inhibitors of firefly luciferase expression or activity, dose response, H4 neuroglioma cells, luminescence (AID 1990); assay type: functional, cell-based

## COc1cc(-c2c(-c3ccc4c(c3)OCO4)noc2C)ccc1F
[1]
  EC50: > 71.4 µM (inactive)

## COc1ccc(-c2nc(C[S+]([O-])CC(=O)NCc3ccccn3)c(C)o2)cc1 (stereo not drawn)
[2]
  EC50: 30.5 µM (active)
[3]
  IC50: 19.4 µM (not active)
[4]
  IC50: > 66 µM (inactive)
[5]
  IC50: 5 µM (active)
[6]
  IC50: 29.4 µM (inactive)
[7]
  IC50: > 100 µM (inactive)
[8]
  EC50: 55.4 µM (active)
[9]
  IC50: 10.7 µM (active)

## CC1C(c2ccccc2)N(C)C(c2ccccc2)C(C)C1(O)C#Cc1ccccc1 (stereo not drawn)
[10]
  IC50: > 66.6 µM (inactive)
[11]
  IC50: > 66.6 µM (inactive)

## O=C(CSc1n[nH]c(-c2cccnc2)n1)Nc1ccc([N+](=O)[O-])cc1Br
[12]
  IC50: 5.92 µM (active)

## CCc1ccc(NC(=O)N2CCN(c3ccc(F)cc3)CC2)cc1
[13]
  IC50: > 100 µM (not active)
[14]
  IC50: > 100 µM (inactive)

## O=C(NCCc1ccccc1)c1cnn2c(C(F)F)cc(C3CC3)nc12
[15]
  EC50: > 120 µM (not active)
[12]
  IC50: 5.5 µM (active)
[16]
  EC50: > 120 µM (not active)
[17]
  EC50: > 120 µM (not active)
